Patent US20140342043A1, “Rebaudioside Sweetener Compositions and Food Products Sweetened with Same” (PepsiCo, Inc., priority 2013, published 2014)
Residues, ends and D or L forms follow the SMILES beside them.

Experiments:
[1] = tested on: 14 expertly trained panelists; test: Sensory studies of sweetness with acidified water samples; type: in vivo, human; settings: for Sweetness (score): acidified water, Aspartame 400 ppm, scale 0 to 15, 15 being the sweetest
Method: Sensory studies with two sets of acidified water samples were performed and are described below, where Set 1: HFCS-55 11.7%; Aspartame 400 ppm, and rebaudioside M 400 ppm; and Set 2: Aspartame 400 ppm, Rebaudioside M 400 ppm and Rebaudioside D 400 ppm. The sensory studies were conducted by 14 expertly trained panelists with two evaluations performed for each set. The scale for scoring was 0 to 15, with 15 being the sweetest. The letters shown in Table 2 and Table 3, along with the numerical sweetness values will be understood by those skilled in the art to designate whether or not a statistically significant difference in taste was found. Thus, it can be seen in Table 1 that for Set 1 a statistically significant difference was found between the three sweeteners. It can be seen in Table 2 that for Set 2 a statistically significant difference in sweetness was found for rebaudioside M versus the other two sweeteners. More generally, it can be seen that for both Set 1 and Set 2, rebaudioside M had noticeably higher sweetness values.

[2] = Solubility in cola syrup preparation; type: physicochemical; settings: cola syrup for 1-plus-5 throw
Method: Samples of finished ready-to-drink cola beverage were prepared for each of three different formulations. The formulations were identical except that syrup variant 1 used rebaudioside A as the sweetener, syrup variant 2 used rebaudioside D as the sweetener, and syrup variant 3 used rebaudioside M as the sweetener in accordance with one aspect of the invention of the present disclosure. For the ready-to-drink cola beverage samples of formulation variant 1 and formulation variant 3, 2.0 liters of syrup were prepared suitable for use in a 1-plus-5 throw with carbonated water to make the corresponding ready-to-drink cola beverage samples. To prepare variant 1 (comprising rebaudioside A as the sweetener) and variant 3 (comprising rebaudioside M as the sweetener), the ingredients listed in Table 4, below, were added (in the sequence listed) to approximately 1.0-1.5 liter purified water with stirring. Purified water was then added until the syrup was 2 liters in volume. Then 50 mL portions of the syrup were added respectively to 250 mL portions of carbonated water, i.e., a “1-plus-5 throw” to obtain samples of finished ready-to-drink cola beverage corresponding to each of the two syrup variants. […] Specifically, the unsweetened cola beverage samples were made first in sample bottles. Then, to each bottle 400 ppm of Reb D was carefully added in. […]

[3] = Differential scanning calorimetry (FIG. 4); type: physicochemical; settings: second DSC run showing little change
Text: FIG. 4 is a differential scanning calorimetry graph for rebaudioside M.

[4] = Taste comparison of rebaudioside M with other potent sweeteners in beverages; type: in vivo
[5] = Table 2, Rebaudioside D 400 ppm, Rebaudioside M 400 ppm
[6] = Table 3, HFCS-55 11.7%, rebaudioside M 400 ppm

| Solubility [2] | Thermo-stability [3] | SMILES | Sweetness (score) [1, 5] | Sweetness (score) [1, 6] | Sweetness relative to other sweeteners ([1]; conclusion from Table 2 and Table 3, 400 ppm in acidified water) | Sweetness intensity relative to Reb A ([4]; in vivo) | Bitterness relative to the same concentration of rebaudioside A ([4]; otherwise identical acidic aqueous carbonated beverages) |
| --- | --- | --- | --- | --- | --- | --- | --- |
| – | – | COC(=O)[C@H](Cc1ccccc1)NC(=O)[C@@H](N)CC(=O)O [Aspartame, reference compound] (H-Asp-Phe-OMe) | 6.39 | 6.30 | – | – | – |
| poor solubility | – | C=C1C[C@@]23CC[C@H]4[C@@](C)(CCC[C@@]4(C)C(=O)O[C@@H]4O[C@H](CO)[C@@H](O)[C@H](O)[C@H]4O[C@@H]4O[C@H](CO)[C@@H](O)[C@H](O)[C@H]4O)[C@@H]2CC[C@]1(O[C@@H]1O[C@H](CO)[C@@H](O)[C@H](O[C@@H]2O[C@H](CO)[C@@H](O)[C@H](O)[C@H]2O)[C@H]1O[C@@H]1O[C@H](CO)[C@@H](O)[C@H](O)[C@H]1O)C3 [Rebaudioside D, rebaudioside D, reference compound] | 6.97 | – | – | – | – |
| – | good thermo-stability | C=C1C[C@@]23CC[C@H]4[C@@](C)(CCC[C@@]4(C)C(=O)O[C@@H]4O[C@H](CO)[C@@H](O)[C@H](O[C@@H]5O[C@H](CO)[C@@H](O)[C@H](O)[C@H]5O)[C@H]4O[C@@H]4O[C@H](CO)[C@@H](O)[C@H](O)[C@H]4O)[C@@H]2CC[C@]1(O[C@@H]1O[C@H](CO)[C@@H](O)[C@H](O[C@@H]2O[C@H](CO)[C@@H](O)[C@H](O)[C@H]2O)[C@H]1O[C@@H]1O[C@H](CO)[C@@H](O)[C@H](O)[C@H]1O)C3 [Rebaudioside M, rebaudioside M] | 7.58 | 8.00 | significantly sweeter than aspartame and rebaudioside D | significantly higher than Reb A | significantly lower bitterness |
